Data: article PMC6151560, “Antibacterial and Antitubercular Activities of Cinnamylideneacetophenones” (Molecules : A Journal of Synthetic Chemistry and Natural …, 2017)
Converted amounts (≈) assume the structure as drawn. Where two headings read alike, the source gives them in different places.

Tests used:
[1] = test system: Pseudomonas aeruginosa (ATCC 15442); assay: Antibacterial broth microdilution (MIC), P. aeruginosa; settings: for MIC: ATCC15442, 24 h, read-out: Pa MIC
[2] = test system: Streptococcus sanguinis (ATCC 10557); assay: Antibacterial broth microdilution (MIC/MBC), S. sanguinis; settings: for MIC: ATCC10557, 24 h
[3] = test system: Streptococcus mutans (ATCC 25175); assay: Antibacterial broth microdilution (MIC/MBC), S. mutans; settings: for MIC: ATCC25175, 24 h; for MBC: ATCC25175, read-out: Sm MBC
[4] = test system: Mycobacterium tuberculosis H37Rv (ATCC 27294); assay: Antitubercular REMA (Resazurin Microtiter Assay); assay type: cell-based; settings: read-out: Mt MIC
E. coli = test system: E. coli; design: method as in PMID 17662960; settings: cited from earlier work
[5] = test system: Staphylococcus aureus (ATCC 14458); assay: Antibacterial broth microdilution (MIC/MBC), S. aureus; settings: for MIC: ATCC14458, 24 h; for MBC: ATCC14458, read-out: Sa MBC
M. tuberculosis = test system: M. tuberculosis; design: method as in PMID 26400221; settings: cited from earlier work
S. aureus strains = test system: S. aureus strains; design: method as in PMID 28066373; settings: cited from earlier work
[6] = test system: Escherichia coli (ATCC 10536); assay: Antibacterial broth microdilution (MIC), E. coli; settings: for MIC: ATCC10536, 24 h, read-out: Ec MIC
[7] = Partition coefficient log Po/w by HPLC-PDA (OECD method); settings: n-octanol/water (from HPLC retention on a C-18 column)
[8] = read-out: Ss MIC, Streptococcus sanguinis, broth microdilution, 24 h, tested 3.9 to 500 µM
[9] = read-out: Sm MIC, Streptococcus mutans, broth microdilution, 24 h, tested 3.9 to 500 µM
[10] = Mycobacterium tuberculosis, 168 h
[11] = broth microdilution, 24 h, tested 3.9 to 500 µM
[12] = M. tuberculosis H37Rv, REMA, 7 days, lowest concentration giving 90% inhibition of growth
[13] = Mycobacterium tuberculosis, 168 h, M. tuberculosis H37Rv, REMA, 7 days, lowest concentration giving 90% inhibition of growth
[14] = read-out: Sa MIC, Staphylococcus aureus, broth microdilution, 24 h, tested 3.9 to 500 µM

SMILES: [H]/N=C(\N/C(=N/[H])NCCCCCCNC(=N)NC(=N)Nc1ccc(Cl)cc1)Nc1ccc(Cl)cc1 [CHX, chlorhexidine, reference compound]
- MIC [1]: 19.4 µM (≈ 9.81 µg/mL)
- MIC [2, 8]: 4.7 µM (≈ 2.38 µg/mL)
- MBC ([2]; ATCC10557, read-out: Ss MBC): 9.5 µM (≈ 4.8 µg/mL)
- MIC [3, 9]: 2.4 µM (≈ 1.21 µg/mL)
- MBC [3]: 4.7 µM (≈ 2.38 µg/mL)

SMILES: O=C/C=C/c1ccccc1 [Compound 1, Cinnamaldehyde, reference compound]
- MIC [1]: > 500 µM
- Pa MIC ([1]; broth microdilution, 24 h): >500 µM
- MIC [4, 10]: > 200 µM
- MIC ([2]; read-out: Ss MIC): > 500 µM
- Ss MIC [2, 11]: >500 µM
- MIC against E. coli (E. coli): 1000 µg/mL
- MIC against E. coli (E. coli; converted value in brackets): 7566 µM
- MIC ([5]; read-out: Sa MIC): > 500 µM
- Sa MIC [5, 11]: >500 µM
- MIC against M. tuberculosis (M. tuberculosis): 3.12 µg/mL
- MIC against M. tuberculosis (M. tuberculosis; converted value in brackets): 23 µM
- MIC against S. aureus strains (S. aureus strains): 250 µg/mL
- MIC against S. aureus strains (S. aureus strains; converted value in brackets): 1891 µM
- MIC [6]: > 500 µM
- Ec MIC ([6]; broth microdilution, 24 h): >500 µM
- MIC ([3]; read-out: Sm MIC): > 500 µM
- Sm MIC [3, 11]: >500 µM

SMILES: O=C(/C=C/C=C/c1ccccc1)c1ccccc1 [Compound 2, (2E,4E)-1,5-diphenylpenta-2,4-dien-1-one]
- MIC [1]: > 500 µM
- MIC [4, 12]: 57.2 µM (≈ 13.4 µg/mL)
- MIC [4, 13]: 57.2 to 70.9 µM (≈ 13.4 to 16.6 µg/mL)
- MIC [2, 8]: > 500 µM
- MIC [5, 14]: > 500 µM
- MIC [6]: > 500 µM
- chromatographic logP [7]: 3.2
- MIC [3, 9]: > 500 µM

SMILES: Nc1cccc(C(=O)/C=C/C=C/c2ccccc2)c1 [Compound 5, (2E,4E)-1-(3-aminophenyl)-5-phenylpenta-2,4-dien-1-one]
- MIC [1]: > 500 µM
- MIC [4, 13]: > 200 µM
- MIC [2, 8]: > 500 µM
- MIC [5, 14]: > 500 µM
- MIC [6]: > 500 µM
- chromatographic logP [7]: 2.5
- MIC [3, 9]: 313 µM (≈ 78 µg/mL)
- MBC [3]: 313 µM (≈ 78 µg/mL)

SMILES: COc1cccc(C(=O)/C=C/C=C/c2ccccc2)c1 [Compound 6, (2E,4E)-1-(3-methoxyphenyl)-5-phenylpenta-2,4-dien-1-one]
- MIC [1]: > 500 µM
- MIC [4, 13]: > 200 µM
- MIC [2, 8]: ≥ 296 µM
- MIC [5, 14]: ≥ 296 µM
- MBC [5]: 296 µM (≈ 78.2 µg/mL)
- MIC [6]: > 500 µM
- chromatographic logP [7]: 3.3
- MIC [3, 9]: ≥ 296 µM

SMILES: COc1ccc(C(=O)/C=C/C=C/c2ccccc2)cc1 [Compound 7, (2E,4E)-1-(4-methoxyphenyl)-5-phenylpenta-2,4-dien-1-one]
- MIC [1]: > 500 µM
- MIC [4, 12]: 66.6 µM (≈ 17.6 µg/mL)
- MIC [4, 13]: 57.2 to 70.9 µM (≈ 15.1 to 18.7 µg/mL)
- MIC [2, 8]: ≥ 296 µM
- MIC [5, 14]: ≥ 296 µM
- MIC [6]: > 500 µM
- chromatographic logP [7]: 3.2
- MIC [3, 9]: ≥ 296 µM

SMILES: COc1cc(C(=O)/C=C/C=C/c2ccccc2)ccc1O [Compound 9, (2E,4E)-1-(4-hydroxy-3-methoxyphenyl)-5-phenylpenta-2,4-dien-1-one]
- MIC [1]: > 500 µM
- MIC [4, 13]: 83.5 µM (≈ 23.4 µg/mL)
- MIC [2, 8]: > 500 µM
- MIC [5, 14]: 279 µM (≈ 78.2 µg/mL)
- MBC [5]: 279 µM (≈ 78.2 µg/mL)
- MIC [6]: > 500 µM
- chromatographic logP [7]: 2.7
- MIC [3, 9]: > 500 µM

SMILES: O=C(/C=C/C=C/c1ccccc1)c1ccc(F)cc1 [Compound 10, (2E,4E)-1-(4-fluorophenyl)-5-phenylpenta-2,4-dien-1-one]
- MIC [1]: > 500 µM
- MIC [4, 12]: 67.4 µM (≈ 17 µg/mL)
- MIC [4, 13]: 57.2 to 70.9 µM (≈ 14.4 to 17.9 µg/mL)
- MIC [2, 8]: > 500 µM
- MIC [5, 14]: > 500 µM
- MIC [6]: > 500 µM
- chromatographic logP [7]: 3.3
- MIC [3, 9]: > 500 µM

SMILES: O=C(/C=C/C=C/c1ccccc1)c1ccc(Cl)cc1 [Compound 11, (2E,4E)-1-(4-chlorophenyl)-5-phenylpenta-2,4-dien-1-one]
- MIC [1]: > 500 µM
- chromatographic logP (physchem): 3.7
- MIC [4, 10]: > 200 µM
- MIC ([2]; read-out: Ss MIC): > 500 µM
- MIC ([5]; read-out: Sa MIC): > 500 µM
- MIC [6]: > 500 µM
- MIC ([3]; read-out: Sm MIC): > 500 µM

SMILES: O=C(/C=C/C=C/c1ccccc1)c1ccc(Br)cc1 [Compound 12, (2E,4E)-1-(4-bromophenyl)-5-phenylpenta-2,4-dien-1-one]
- MIC [1]: > 500 µM
- chromatographic logP (physchem): 3.8
- MIC [4, 10]: > 200 µM
- MIC ([2]; read-out: Ss MIC): > 500 µM
- MIC ([5]; read-out: Sa MIC): > 500 µM
- MIC [6]: > 500 µM
- MIC ([3]; read-out: Sm MIC): > 500 µM

SMILES: O=C(/C=C/C=C/c1ccccc1)c1ccc(Cl)c(Cl)c1 [Compound 13, (2E,4E)-1-(3,4-dichlorophenyl)-5-phenylpenta-2,4-dien-1-one]
- MIC [1]: > 500 µM
- MIC [4, 13]: > 200 µM
- MIC [2, 8]: > 500 µM
- MIC [5, 14]: > 500 µM
- MIC [6]: > 500 µM
- chromatographic logP [7]: 4.1
- MIC [3, 9]: > 500 µM
